Measured values reported in the kinase profiling compilation of Christmann-Franck et al. (2016).

Tests used:
Experiment in all cases: radiometric filter-binding kinase assay
[1] = target: MAP3K1 (human) (UniProt Q13233)
[2] = target: PIM1 (human) (UniProt P11309)
[3] = target: MAPK11 (human) (UniProt Q15759)
[4] = target: SYK (human) (UniProt P43405)
[5] = target: MAPK8 (human) (UniProt P45983)
[6] = target: EPHB4 (human) (UniProt P54760)
[7] = target: JAK2 JH1 JH2 (human) (UniProt O60674)
[8] = target: MAP3K11 (human) (UniProt Q16584)
[9] = target: MAPK10 (human) (UniProt P53779)
[10] = target: AURKA (human) (UniProt O14965)
[11] = target: GCK (human) (UniProt Q12851)
[12] = tested on: RPS6KB1 (human), P23443 [T412E]
[13] = target: EPHB1 (human) (UniProt P54762)
[14] = target: MAPKAPK5 (human) (UniProt Q8IW41)
[15] = target: HIPK2 (human) (UniProt Q9H2X6)
[16] = target: HIPK1 (human) (UniProt Q86Z02)
[17] = target: BTK (human) (UniProt Q06187)
[18] = target: MAP2K1 (human) (UniProt Q02750); details: compound 0.1 µM

Chain of HIPK1 (human) (Q86Z02 whole entry, looked up): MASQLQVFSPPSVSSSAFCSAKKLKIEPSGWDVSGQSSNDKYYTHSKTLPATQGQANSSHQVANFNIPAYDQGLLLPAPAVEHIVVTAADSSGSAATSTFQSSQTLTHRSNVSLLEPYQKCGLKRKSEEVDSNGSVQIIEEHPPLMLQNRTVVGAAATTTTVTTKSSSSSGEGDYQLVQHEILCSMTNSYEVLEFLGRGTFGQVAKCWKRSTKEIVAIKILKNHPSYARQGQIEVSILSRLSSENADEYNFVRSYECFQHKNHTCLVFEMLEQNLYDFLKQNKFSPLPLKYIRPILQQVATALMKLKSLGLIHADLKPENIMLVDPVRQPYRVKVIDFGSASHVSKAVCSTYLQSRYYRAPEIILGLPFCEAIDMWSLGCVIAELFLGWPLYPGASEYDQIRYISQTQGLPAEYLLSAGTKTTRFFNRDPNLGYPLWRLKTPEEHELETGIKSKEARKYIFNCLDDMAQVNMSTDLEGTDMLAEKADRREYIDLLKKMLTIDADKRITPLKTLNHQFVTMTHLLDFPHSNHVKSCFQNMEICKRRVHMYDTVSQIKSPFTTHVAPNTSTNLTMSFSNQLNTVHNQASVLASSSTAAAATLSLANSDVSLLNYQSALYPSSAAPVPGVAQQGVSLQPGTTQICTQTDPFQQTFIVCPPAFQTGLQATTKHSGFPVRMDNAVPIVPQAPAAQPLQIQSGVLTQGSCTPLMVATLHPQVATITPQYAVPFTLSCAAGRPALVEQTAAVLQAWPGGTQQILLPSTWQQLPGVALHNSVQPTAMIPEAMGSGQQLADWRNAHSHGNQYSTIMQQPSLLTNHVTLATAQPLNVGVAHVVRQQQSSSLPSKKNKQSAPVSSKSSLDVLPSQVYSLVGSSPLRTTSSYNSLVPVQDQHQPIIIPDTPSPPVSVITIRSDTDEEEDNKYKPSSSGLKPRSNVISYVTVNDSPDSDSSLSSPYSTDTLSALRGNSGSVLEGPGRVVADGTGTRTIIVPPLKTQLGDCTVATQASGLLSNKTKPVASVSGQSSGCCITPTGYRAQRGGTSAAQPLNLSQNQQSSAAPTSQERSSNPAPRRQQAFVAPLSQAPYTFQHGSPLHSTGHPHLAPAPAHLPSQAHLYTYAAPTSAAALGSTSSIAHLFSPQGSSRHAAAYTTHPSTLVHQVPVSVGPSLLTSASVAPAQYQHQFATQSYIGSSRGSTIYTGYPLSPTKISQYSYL
Chain of JAK2 JH1 JH2 (human) (O60674 whole entry, looked up): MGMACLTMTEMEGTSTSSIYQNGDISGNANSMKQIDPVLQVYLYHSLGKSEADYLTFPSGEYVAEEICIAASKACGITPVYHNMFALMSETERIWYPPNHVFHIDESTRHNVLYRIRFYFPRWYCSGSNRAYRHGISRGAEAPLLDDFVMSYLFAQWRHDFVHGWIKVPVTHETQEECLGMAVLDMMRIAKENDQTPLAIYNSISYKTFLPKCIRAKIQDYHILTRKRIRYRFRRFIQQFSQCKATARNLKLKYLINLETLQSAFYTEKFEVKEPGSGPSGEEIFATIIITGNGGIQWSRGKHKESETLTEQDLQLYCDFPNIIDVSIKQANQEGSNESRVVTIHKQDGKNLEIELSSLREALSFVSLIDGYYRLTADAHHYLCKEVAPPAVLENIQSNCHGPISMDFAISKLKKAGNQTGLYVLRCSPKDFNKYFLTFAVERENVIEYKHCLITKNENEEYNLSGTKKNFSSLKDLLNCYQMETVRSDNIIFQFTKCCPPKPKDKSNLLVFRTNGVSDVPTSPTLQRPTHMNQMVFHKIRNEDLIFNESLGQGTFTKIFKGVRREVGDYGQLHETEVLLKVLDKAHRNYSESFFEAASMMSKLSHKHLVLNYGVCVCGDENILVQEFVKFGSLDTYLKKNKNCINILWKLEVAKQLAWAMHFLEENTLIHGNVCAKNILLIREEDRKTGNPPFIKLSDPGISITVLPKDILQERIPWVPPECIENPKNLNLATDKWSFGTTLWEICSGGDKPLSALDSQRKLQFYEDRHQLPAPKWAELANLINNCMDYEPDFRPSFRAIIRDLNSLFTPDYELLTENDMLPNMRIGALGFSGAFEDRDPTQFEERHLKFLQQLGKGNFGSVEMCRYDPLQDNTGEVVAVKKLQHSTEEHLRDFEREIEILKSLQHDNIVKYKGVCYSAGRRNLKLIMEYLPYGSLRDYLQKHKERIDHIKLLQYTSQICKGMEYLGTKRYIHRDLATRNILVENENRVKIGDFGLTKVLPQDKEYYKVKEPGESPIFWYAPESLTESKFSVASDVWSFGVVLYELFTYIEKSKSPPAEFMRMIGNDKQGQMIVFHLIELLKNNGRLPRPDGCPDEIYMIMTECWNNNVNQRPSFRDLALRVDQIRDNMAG
Chain of HIPK2 (human) (Q9H2X6 whole entry, looked up): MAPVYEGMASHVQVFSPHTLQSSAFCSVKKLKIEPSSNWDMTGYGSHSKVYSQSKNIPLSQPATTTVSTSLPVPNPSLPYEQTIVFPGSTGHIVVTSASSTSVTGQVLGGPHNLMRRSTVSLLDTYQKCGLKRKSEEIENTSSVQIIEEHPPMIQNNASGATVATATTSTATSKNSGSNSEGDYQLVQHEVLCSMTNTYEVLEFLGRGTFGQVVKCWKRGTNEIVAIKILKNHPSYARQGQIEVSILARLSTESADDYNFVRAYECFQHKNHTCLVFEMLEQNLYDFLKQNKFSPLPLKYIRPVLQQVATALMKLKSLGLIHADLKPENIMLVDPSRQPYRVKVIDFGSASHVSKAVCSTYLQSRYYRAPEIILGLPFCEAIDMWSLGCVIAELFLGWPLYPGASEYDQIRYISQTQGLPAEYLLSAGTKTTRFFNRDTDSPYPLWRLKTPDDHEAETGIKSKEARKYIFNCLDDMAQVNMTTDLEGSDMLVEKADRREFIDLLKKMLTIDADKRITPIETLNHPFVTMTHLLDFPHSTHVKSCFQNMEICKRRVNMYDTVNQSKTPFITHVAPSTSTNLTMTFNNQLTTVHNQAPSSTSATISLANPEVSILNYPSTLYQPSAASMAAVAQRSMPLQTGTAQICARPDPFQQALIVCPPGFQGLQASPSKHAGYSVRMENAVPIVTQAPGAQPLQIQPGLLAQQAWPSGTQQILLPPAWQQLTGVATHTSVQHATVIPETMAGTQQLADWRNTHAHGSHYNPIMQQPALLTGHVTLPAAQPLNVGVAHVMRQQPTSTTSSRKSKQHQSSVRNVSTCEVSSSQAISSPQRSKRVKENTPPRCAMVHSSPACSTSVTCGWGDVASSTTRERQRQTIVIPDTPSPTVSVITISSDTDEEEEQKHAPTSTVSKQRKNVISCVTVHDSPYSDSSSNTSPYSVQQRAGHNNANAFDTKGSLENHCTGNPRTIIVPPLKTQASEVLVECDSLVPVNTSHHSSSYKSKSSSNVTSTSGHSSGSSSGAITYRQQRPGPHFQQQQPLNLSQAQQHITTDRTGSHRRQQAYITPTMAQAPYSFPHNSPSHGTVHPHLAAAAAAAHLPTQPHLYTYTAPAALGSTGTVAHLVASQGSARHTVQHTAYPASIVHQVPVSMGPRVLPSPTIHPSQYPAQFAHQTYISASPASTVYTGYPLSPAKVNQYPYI
Chain of PIM1 (human) (P11309 whole entry, looked up): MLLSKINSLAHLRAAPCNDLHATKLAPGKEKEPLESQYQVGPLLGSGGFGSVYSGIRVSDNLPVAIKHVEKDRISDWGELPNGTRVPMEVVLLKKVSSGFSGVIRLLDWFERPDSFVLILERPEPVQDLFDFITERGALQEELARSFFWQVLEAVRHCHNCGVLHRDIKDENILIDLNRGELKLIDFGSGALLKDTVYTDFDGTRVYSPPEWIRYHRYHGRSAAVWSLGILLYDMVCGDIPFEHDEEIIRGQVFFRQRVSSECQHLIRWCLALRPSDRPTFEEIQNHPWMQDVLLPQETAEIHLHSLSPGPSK
Chain of MAPK11 (human) (Q15759 whole entry, looked up): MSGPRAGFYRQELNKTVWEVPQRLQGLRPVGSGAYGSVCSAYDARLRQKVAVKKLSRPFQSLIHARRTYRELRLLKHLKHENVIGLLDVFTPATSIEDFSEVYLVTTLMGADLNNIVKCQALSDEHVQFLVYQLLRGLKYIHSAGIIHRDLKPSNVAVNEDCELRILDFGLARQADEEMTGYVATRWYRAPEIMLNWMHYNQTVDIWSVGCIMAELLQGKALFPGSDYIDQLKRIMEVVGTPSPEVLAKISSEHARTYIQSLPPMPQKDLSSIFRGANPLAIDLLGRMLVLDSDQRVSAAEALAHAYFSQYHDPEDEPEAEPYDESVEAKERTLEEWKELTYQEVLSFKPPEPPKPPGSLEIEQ
Chain of BTK (human) (Q06187 whole entry, looked up): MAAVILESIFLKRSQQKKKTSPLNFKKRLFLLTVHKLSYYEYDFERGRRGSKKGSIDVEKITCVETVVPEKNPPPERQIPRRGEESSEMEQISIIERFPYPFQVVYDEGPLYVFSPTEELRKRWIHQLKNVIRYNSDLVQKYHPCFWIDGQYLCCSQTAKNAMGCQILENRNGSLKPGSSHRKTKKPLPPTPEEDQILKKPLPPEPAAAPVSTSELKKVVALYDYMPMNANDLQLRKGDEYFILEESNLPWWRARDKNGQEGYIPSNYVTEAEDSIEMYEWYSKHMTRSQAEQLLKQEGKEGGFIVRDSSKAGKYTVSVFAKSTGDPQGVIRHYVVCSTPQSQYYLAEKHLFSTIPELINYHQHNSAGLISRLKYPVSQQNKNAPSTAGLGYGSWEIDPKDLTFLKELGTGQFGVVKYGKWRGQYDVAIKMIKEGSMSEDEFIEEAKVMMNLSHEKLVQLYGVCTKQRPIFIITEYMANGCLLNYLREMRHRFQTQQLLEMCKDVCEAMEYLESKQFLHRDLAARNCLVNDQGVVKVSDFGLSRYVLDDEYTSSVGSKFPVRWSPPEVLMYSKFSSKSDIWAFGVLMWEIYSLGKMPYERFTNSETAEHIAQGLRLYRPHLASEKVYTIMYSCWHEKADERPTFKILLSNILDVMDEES

## NC(=O)c1cc(-c2ccnc(NC3CCCCC3)c2)nc(N2CCNCC2)c1
[1]; compound 0.1 µM
  residual activity: 115%
[1]; compound 10.0 µM
  residual activity: 102%
[2]; compound 0.1 µM
  residual activity: 114%
[2]; compound 1.0 µM
  residual activity: 98%
[2]; compound 10.0 µM
  residual activity: 65%
[3]; compound 0.1 µM
  residual activity: 99%
[3]; compound 1.0 µM
  residual activity: 96%
[3]; compound 10.0 µM
  residual activity: 62%
[4]; compound 0.1 µM
  residual activity: 90%
[4]; compound 1.0 µM
  residual activity: 104%
[4]; compound 10.0 µM
  residual activity: 92%
[5]; compound 0.1 µM
  residual activity: 109%
[5]; compound 1.0 µM
  residual activity: 100%
[5]; compound 10.0 µM
  residual activity: 38%
[6]; compound 0.1 µM
  residual activity: 103%
[6]; compound 10.0 µM
  residual activity: 91%
[7]; compound 0.1 µM
  residual activity: 82%
[7]; compound 1.0 µM
  residual activity: 87%
[7]; compound 10.0 µM
  residual activity: 89%
[8]; compound 0.1 µM
  residual activity: 93%
[8]; compound 1.0 µM
  residual activity: 86%
[8]; compound 10.0 µM
  residual activity: 81%
[9]; compound 0.1 µM
  residual activity: 88%
[9]; compound 1.0 µM
  residual activity: 79%
[9]; compound 10.0 µM
  residual activity: 31%
[10]; compound 0.1 µM
  residual activity: 92%
[10]; compound 1.0 µM
  residual activity: 88%
[10]; compound 10.0 µM
  residual activity: 112%
[11]; compound 0.1 µM
  residual activity: 41%
[11]; compound 1.0 µM
  residual activity: 82%
[11]; compound 10.0 µM
  residual activity: 44%
[12]; compound 0.1 µM
  residual activity: 92%
[12]; compound 1.0 µM
  residual activity: 96%
[12]; compound 10.0 µM
  residual activity: 94%
[13]; compound 0.1 µM
  residual activity: 96%
[13]; compound 1.0 µM
  residual activity: 111%
[13]; compound 10.0 µM
  residual activity: 99%
[14]; compound 0.1 µM
  residual activity: 109%
[14]; compound 1.0 µM
  residual activity: 97%
[14]; compound 10.0 µM
  residual activity: 65%
[15]; compound 0.1 µM
  residual activity: 89%
[15]; compound 1.0 µM
  residual activity: 125%
[15]; compound 10.0 µM
  residual activity: 87%
[16]; compound 0.1 µM
  residual activity: 99%
[16]; compound 1.0 µM
  residual activity: 99%
[16]; compound 10.0 µM
  residual activity: 106%
[17]; compound 0.1 µM
  residual activity: 92%
[17]; compound 1.0 µM
  residual activity: 120%
[17]; compound 10.0 µM
  residual activity: 79%
[18]
  residual activity: 86%
